In ChEMBL document CHEMBL5055633, “Amphipathic Barbiturates as Mimics of Antimicrobial Peptides and the Marine Natural Products Eusynstyelamides with Activity against Multi-resistant Clinical Isolates” (J Med Chem, 2021):
Calls of active or inactive are those of the source. The rule behind the calls is not given here.

Assays:
Pseudomonas aeruginosa [1] = test: Antimicrobial activity against verona integron-encoded metallo-beta-lactamase-4 producing Pseudomonas aeruginosa K34-73 assessed as reduction in bacterial growth incubated for 48 hrs by microdilution method; assay type: functional
Escherichia coli [2] = test: Antimicrobial activity against Escherichia coli ATCC 25922 assessed as reduction in bacterial growth incubated for 48 hrs by microdilution susceptibility test; assay type: functional
Enterococcus faecium [3] = test: Antimicrobial activity against extended spectrum-lactamase-carbapenemas producing Enterococcus faecium strain 50673722 assessed as reduction in bacterial growth incubated for 48 hrs by microdilution method; assay type: functional
Pseudomonas aeruginosa [4] = test: Antimicrobial activity against imipenem-type carbapenemase-14 producing Pseudomonas aeruginosa K44-24 assessed as reduction in bacterial growth incubated for 48 hrs by microdilution method; assay type: functional
Streptococcus pneumoniae [5] = test: Antibacterial activity against in […] 168 assessed as decrease in bacterial viability at 6.3 ug/ml by cell viability assay; assay type: functional, organism-based; conditions: dose 6.3 µg/ml
Staphylococcus aureus [6] = test: Antimicrobial activity against extended spectrum-lactamase-carbapenemas producing Staphylococcus aureus N315 assessed as reduction in bacterial growth incubated for 48 hrs by microdilution method; assay type: functional
[7] = Hemolytic activity in human erythrocytes incubated for 1 hr by microplate reader; assay type: functional, cell-based; conditions: erythrocyte
Escherichia coli [8] = test: Antimicrobial activity against New Delhi metallo-beta lactamase-1 producing Escherichia coli 50676002 assessed as reduction in bacterial growth incubated for 48 hrs by microdilution method; assay type: functional
Escherichia coli [9] = test: Membrano-lytic effect in Escherichia coli HB101 assessed as decrease in bacterial viability at 3.1 ug/ml by luciferase based real-time membrane integrity assay; assay type: functional, organism-based; conditions: dose 3.1 µg/ml
Acinetobacter baumannii [10] = test: Antimicrobial activity against oxacillinase-58 producing Acinetobacter baumannii K12-21 assessed as reduction in bacterial growth incubated for 48 hrs by microdilution method; assay type: functional
Escherichia coli [11] = test: Antimicrobial activity against verona integron-encoded metallo-beta-lactamase-29-producing Escherichia coli 50639799 assessed as reduction in bacterial growth incubated for 48 hrs by microdilution method; assay type: functional
[12] = Antimicrobial activity against New Delhi metallo-beta lactamase-1 Klebsiella pneumoniae K66-45 assessed as reduction in bacterial growth incubated for 48 hrs by microdilution method; assay type: functional
MRC5 = test: Cytotoxicity against human MRC5 cells assessed as reduction in cell viability incubated for 24 hrs by colorimetric tetrazolium assay; assay type: functional, cell-based; conditions: MRC5, 24 h
Acinetobacter baumannii [13] = test: Antimicrobial activity against oxacillinase-23 producing Acinetobacter baumannii K47-42 assessed as reduction in bacterial growth incubated for 48 hrs by microdilution method; assay type: functional
Acinetobacter baumannii [14] = test: Antimicrobial activity against oxacillinase-23 producing Acinetobacter baumannii K63-58 assessed as reduction in bacterial growth incubated for 48 hrs by microdilution method; assay type: functional
[15] = Antimicrobial activity against verona integron-encoded metallo-beta-lactamase -1 producing Klebsiella pneumoniae 50667959 assessed as reduction in bacterial growth incubated for 48 hrs by microdilution method; assay type: functional
Escherichia coli [16] = test: Membrano-lytic effect in Escherichia coli HB101 assessed as decrease in bacterial viability at 6.3 ug/ml by luciferase based real-time membrane integrity assay; assay type: functional, organism-based; conditions: dose 6.3 µg/ml
[17] = Antimicrobial activity against carbapenemase producing Klebsiella pneumoniae K47-25 assessed as reduction in bacterial growth incubated for 48 hrs by microdilution method; assay type: functional
Escherichia coli [18] = test: Antimicrobial activity against New Delhi metallo-beta lactamase-1 producing Escherichia coli 50739822 assessed as reduction in bacterial growth incubated for 48 hrs by microdilution method; assay type: functional
Staphylococcus aureus [19] = test: Antimicrobial activity against Staphylococcus aureus ATCC 9144 assessed as reduction in bacterial growth incubated for 48 hrs by microdilution susceptibility test; assay type: functional
Enterococcus faecium [20] = test: Antimicrobial activity against extended spectrum-lactamase-carbapenemas producing Enterococcus faecium strain K36-18 assessed as reduction in bacterial growth incubated for 48 hrs by microdilution method; assay type: functional
Escherichia coli [21] = test: Antibacterial activity against Escherichia coli HB101 assessed as decrease in bacterial viability at 6.3 ug/ml by cell viability assay; assay type: functional, organism-based; conditions: dose 6.3 µg/ml
Staphylococcus aureus [22] = test: Antimicrobial activity against extended spectrum-lactamase-carbapenemas producing Staphylococcus aureus strain 85/2082 assessed as reduction in bacterial growth incubated for 48 hrs by microdilution method; assay type: functional
Staphylococcus aureus [23] = test: Antimicrobial activity against extended spectrum-lactamase-carbapenemas producing Staphylococcus aureus strain WIS assessed as reduction in bacterial growth incubated for 48 hrs by microdilution method; assay type: functional
Pseudomonas aeruginosa [24] = test: Antimicrobial activity against verona integron-encoded metallo-beta-lactamase producing Pseudomonas aeruginosa 50692520 assessed as reduction in bacterial growth incubated for 48 hrs by microdilution method; assay type: functional
[25] = test system: Corynebacterium glutamicum; test: Antimicrobial activity against Corynebacterium glutamicum ATCC 13032 assessed as reduction in bacterial growth incubated for 48 hrs by microdilution susceptibility test; assay type: functional
Pseudomonas aeruginosa [26] = test: Antimicrobial activity against New Delhi metallo-beta lactamase-1 producing Pseudomonas aeruginosa 50692172 assessed as reduction in bacterial growth incubated for 48 hrs by microdilution method; assay type: functional
HepG2 = test: Cytotoxicity against human HepG2 cells assessed as reduction in cell viability incubated for 24 hrs by colorimetric tetrazolium assay; assay type: functional, cell-based; conditions: HepG2, 24 h
Escherichia coli [27] = test: Antimicrobial activity against oxacillinase-producing Escherichia coli 50579417 assessed as reduction in bacterial growth incubated for 48 hrs by microdilution method; assay type: functional
[28] = Antimicrobial activity against New Delhi metallo-beta lactamase-1 and oxacillinase -181 producing Klebsiella pneumoniae 50531633 assessed as reduction in bacterial growth incubated for 48 hrs by microdilution method; assay type: functional
Escherichia coli [29] = test: Antibacterial activity against in Escherichia coli HB101 assessed as decrease in bacterial viability at 3.1 ug/ml by cell viability assay; assay type: functional, organism-based; conditions: dose 3.1 µg/ml
Enterococcus faecium [30] = test: Antimicrobial activity against extended spectrum-lactamase-carbapenemas producing Enterococcus faecium strain 50901530 assessed as reduction in bacterial growth incubated for 48 hrs by microdilution method; assay type: functional
Staphylococcus aureus [31] = test: Antimicrobial activity against extended spectrum-lactamase-carbapenemas producing Staphylococcus aureus strain IHT 99040 assessed as reduction in bacterial growth incubated for 48 hrs by microdilution method; assay type: functional
Streptococcus pneumoniae [32] = test: Antibacterial activity against in […] 168 assessed as decrease in bacterial viability at 3.1 ug/ml by cell viability assay; assay type: functional, organism-based; conditions: dose 3.1 µg/ml
Enterococcus faecium [33] = test: Antimicrobial activity against extended spectrum-lactamase-carbapenemas producing Enterococcus faecium strain 50758899 assessed as reduction in bacterial growth incubated for 48 hrs by microdilution method; assay type: functional
Enterococcus faecium [34] = test: Antimicrobial activity against extended spectrum-lactamase-carbapenemas producing Enterococcus faecium strain TUH.50-22 assessed as reduction in bacterial growth incubated for 48 hrs by microdilution method; assay type: functional
Staphylococcus aureus [35] = test: Antimicrobial activity against extended spectrum-lactamase-carbapenemas producing Staphylococcus aureus NCTC 10442 assessed as reduction in bacterial growth incubated for 48 hrs by microdilution method; assay type: functional
Escherichia coli [36] = test: Antimicrobial activity against imipenem-type carbapenemase-26 producing Escherichia coli 50857972 assessed as reduction in bacterial growth incubated for 48 hrs by microdilution method; assay type: functional
Acinetobacter baumannii [37] = test: Antimicrobial activity against oxacillinase-23 producing Acinetobacter baumannii K44-35 assessed as reduction in bacterial growth incubated for 48 hrs by microdilution method; assay type: functional
[38] = Antimicrobial activity against oxacillinase-245 producing Klebsiella pneumoniae 50625602 assessed as reduction in bacterial growth incubated for 48 hrs by microdilution method; assay type: functional
Pseudomonas aeruginosa [39] = test: Antimicrobial activity against verona integron-encoded metallo-beta-lactamase-2 producing Pseudomonas aeruginosa K34-7 assessed as reduction in bacterial growth incubated for 48 hrs by microdilution method; assay type: functional
Acinetobacter baumannii [40] = test: Antimicrobial activity against oxacillinase-24 producing Acinetobacter baumannii K55-13 assessed as reduction in bacterial growth incubated for 48 hrs by microdilution method; assay type: functional
Pseudomonas aeruginosa [41] = test: Antimicrobial activity against Pseudomonas aeruginosa PAO1 assessed as reduction in bacterial growth incubated for 48 hrs by microdilution susceptibility test; assay type: functional

## NCCCCN1C(=O)N(CCCCN)C(=O)C(Cc2cc(Br)cc(Br)c2)(Cc2cc(Br)cc(Br)c2)C1=O.O=C(O)C(F)(F)F.O=C(O)C(F)(F)F
Pseudomonas aeruginosa [1]
  MIC: 16 µg/mL
Escherichia coli [2]
  MIC: 4 µg/mL
Enterococcus faecium [3]
  MIC: 4 µg/mL
Pseudomonas aeruginosa [4]
  MIC: 16 µg/mL
Streptococcus pneumoniae [5]
  Activity: Active
Staphylococcus aureus [6]
  MIC: 4 µg/mL
[7]
  EC50: 79 µg/mL
Escherichia coli [8]
  MIC: 8 µg/mL
Escherichia coli [9]
  Activity: Active
Acinetobacter baumannii [10]
  MIC: 16 µg/mL
Escherichia coli [11]
  MIC: 8 µg/mL
[12]
  MIC: 16 µg/mL
MRC5
  IC50: 2 µg/mL
Acinetobacter baumannii [13]
  MIC: 16 µg/mL
Acinetobacter baumannii [14]
  MIC: 16 µg/mL
[15]
  MIC: 16 µg/mL
Escherichia coli [16]
  Activity: Active
[17]
  MIC: 16 µg/mL
Escherichia coli [18]
  MIC: 8 µg/mL
Staphylococcus aureus [19]
  MIC: 4 µg/mL
Enterococcus faecium [20]
  MIC: 8 µg/mL
Escherichia coli [21]
  Activity: Active
Staphylococcus aureus [22]
  MIC: 4 µg/mL
Staphylococcus aureus [23]
  MIC: 4 µg/mL
Pseudomonas aeruginosa [24]
  MIC: 16 µg/mL
[25]
  MIC: 1 µg/mL
Pseudomonas aeruginosa [26]
  MIC: 16 µg/mL
HepG2
  IC50: 4 µg/mL
Escherichia coli [27]
  MIC: 8 µg/mL
[28]
  MIC: 8 µg/mL
Escherichia coli [29]
  Activity: Active
Enterococcus faecium [30]
  MIC: 4 µg/mL
Staphylococcus aureus [31]
  MIC: 4 µg/mL
Streptococcus pneumoniae [32]
  Activity: Active
Enterococcus faecium [33]
  MIC: 4 µg/mL
Enterococcus faecium [34]
  MIC: 4 µg/mL
Staphylococcus aureus [35]
  MIC: 4 µg/mL
Escherichia coli [36]
  MIC: 8 µg/mL
Acinetobacter baumannii [37]
  MIC: 16 µg/mL
[38]
  MIC: 16 µg/mL
Pseudomonas aeruginosa [39]
  MIC: 16 µg/mL
Acinetobacter baumannii [40]
  MIC: 16 µg/mL
Pseudomonas aeruginosa [41]
  MIC: 8 µg/mL
